The results in this text go back to US20040110676A1, “Methods for modulating cell survival” (priority 2000, published 2004).

In data set [1] the test system is hippocampal neurons. Put plainly: Kainic acid-induced seizure neurodegeneration in YAC transgenic mice. It is filed as in vivo. The procedure: Yeast artificial chromosome (YAC) transgenic mice were generated that over-express wild-type human htt at 2-3 times the levels of endogenous htt in wild-type mice (FVB/NJ) (Hodgson et al.(1996) Hum. Mol. Genet. 5, 1875-1885). Fifteen of these transgenic and 23 control FVB/NJ mice 4-8 months of age each received a single intraperitoneal injection of 25 mg/kg kainic acid (KA) or an equal volume of vehicle (PBS). Intraperitoneal injections of kainic acid injections cause prolonged seizures in mice, and each mouse was observed continuously for two hours following injection. The occurrence, severity, and duration of seizures was recorded.
(§1) One week following KA injection, brains were removed from one group of the mice and immediately frozen in isopentene on dry ice. Serial 30 μm coronal cryostat sections were cut through the entire hippocampus. After every fifth section, two sections were removed for quantitative analysis and fixed in 3% paraformaldehyde for 30 minutes in preparation for histochemical staining. Degenerating neurons were identified in hippocampal sections by Fluoro-Jade™ histochemistry (Histo-Chem Inc.), silver staining (FD Neurotechnologies) and by TUNEL™ (Boehringer Mannheim). Fluoro-Jade™ is a fluorescent stain that labels degenerating neurons in fixed brain sections. The total number of degenerated hippocampal neurons labeled with Fluoro-Jade™ was recorded from the CA1, CA3, and total hippocampus regions of each section selected for quantitative analysis. Slide-mounted sections were viewed with a Zeiss (Axiovert) fluorescent microscope, digital photomicrographs were captured with a cooled CCD camera (Princeton), and degenerating hippocampal neurons manually counted in a blinded fashion. To assess the role of caspase activation in this process, the hippocampus and cerebellum were removed from a second group of animals 8 hours following KA-induced seizures. Caspase activity was measured in homogenized hippocampal and cerebellar samples using the fluorogenic substrate acetylated DEVD aminofluorocoumarin. DEVD-ase activity was standardized to protein content as determined by standard Lowry analysis.

Data set [2] concerns DEVD-ase activity (caspase-2, -3, -7). The data set is described as follows: DEVD-ase (caspase) activity after kainic acid-induced seizures. The class given is in vivo, mice. Particulars: 8 hours after KA-induced seizures. The procedure:
as §1, with “To assess the role of caspase activation in this process, the hippocampus and cerebellum were removed from a second group of animals 8 hours following KA-induced seizures.” left out

Data set [3] can be described thus: Body weight of transgenic mice over-expressing wild-type htt. It is filed as in vivo. The conditions noted are these: transgenic mice aged 5-8 months over-expressing wild-type htt. The source says: One of the roles of the pro-survival (e.g. anti-apoptotic) function of wild-type htt may be in control of tissue mass and cellular proliferation. Increased levels of wild-type htt expression can lead to increased body tissue mass and may predispose mice to the development of tumors. The effect of over-expression of human wild-type htt on the body weight of transgenic mice was compared to wild-type mice (FIG. 16). […] The average body weight was approximately 25% greater for the transgenic mice compared to wild-type. […] Over production of cells in the body can have a variety of unwanted outcomes including but not limited to obesity or cancer. This may be due to decreased naturally occurring apoptosis or increased cellular proliferation.

The nature of data set [4]: Retrospective analysis of tumor development in transgenic mouse colony. It is filed as in vivo, mice. As for the experimental part:
A retrospective analysis was performed to examine the total numbers of mice (identified by the animal colony health staff) that developed tumors in the colony of transgenic mice. The records of all mice diagnosed with tumors over a 6 month period were examined, in a group of mice over-expressing wild-type human htt and their wild-type littermates. […] The average age of tumor development was younger in the transgenic group 13.8 months compared to 17.1 months for wild-type littermates. The majority of identified tumors in male mice were testicular tumors.

Data set [5] deals with NIH3T3 cells. The data set is described as follows: Cellular proliferation after transient transfection, colorometric assay of cell number. It is filed as cell-based. The procedure: The ability of NIH3T3 cells to overcome contact inhibition when transfected with different gene constructs has been used for many years to assess oncogenic potential of certain genes and to identify potential oncogenes. Cellular proliferation was assessed following transient transfections of NIH3T3 cells using a standardised colorometric assay of cell number. The effect of htt on cellular growth was examined and compared to the effect of a known oncogene, ras (FIG. 17). NIH3T3 cells transfected with htt constructs show a significant increase in cellular proliferation (5-6 fold increase in proliferation compared to control vector) that is similar to the effect of ras.

Data set [6] concerns NIH3T3 cells. The data set is described as follows: Soft agar colony formation and transformation of retrovirally transfected cells. The class given is cell-based. As for the experimental part: Retroviral introduction of the S421 mutants into NIH3T3 cells was used to examine the oncogenic (proliferative) effects of phosphorylation on serine 421. […] To test the oncogenic potential of htt and to examine the effect of phosphorylation of htt at S421 on cell proliferation, a soft agar assay was conducted in NIH3T3 cells (FIG. 21). […] Mutant htt (HD138) transfection leads to no (0%) soft agar colonies.

Data set [7] concerns NIH/3T3 cells. The data set is described as follows: Anoikis assay on poly-HEMA coated plates, annexin-V-FITC/PI. It is filed as cell-based, murine. Particulars: detached, 8 hours, p<0.05 vs parental cells. An excerpt:
Using the murine transformed fibroblast cell line, NIH/3T3, the anoikis-resistance properties of wild type htt (15 glutamine repeat) and mutant htt (138 glutamine repeat) were investigated. NIH/3T3 cells require a matrix for attachment in order to experience optimum growing conditions. When detached from the supporting matrix, they experience a high rate of apoptosis. NIH/3T3 cells were transfected with a mammalian expression vector containing wild type htt (15 glutamine repeat) or mutant htt (138 glutamine repeat). Untransfected and transfected NIH/3T3 cells were grown on cell culture plates, whose plastic surface served as a substrate for matrix deposition and subsequent cellular attachment, or on poly-HEMA coated cell culture plates. The nonionic nature of poly-HEMA inhibits both matrix deposition and subsequent cell attachment. […] The cells were cultured in DMEM with 10% serum for 8 hours under attached conditions on plastic plates or under detached conditions on poly-HEMA-coated plastic plates. Cells were harvested, counted and viability was assessed via annexin-V-FITC and propidium iodide (PI) staining.

For “wild-type htt: wild-type human huntingtin protein, polyglutamine tract of less than 35 glutamines; over-expressed in YAC line 212 mice or transfected (15 glutamine repeat)”, the “average number of degenerating neurons per animal (Fluoro-Jade)” value in data set [1] (CA1 region, 25 mg/kg KA i.p., one week, control 2360) came out at 3; in data set [1] (CA3 region, 25 mg/kg KA i.p., one week, control 2003) it was 79. In addition, the “fold less degenerating hippocampal neurons than control animals” value in data set [1] (after KA-induced seizures) is “approximately 50 fold”. Moreover, the “TUNEL labeled apoptotic hippocampal neurons” value in data set [1] (after KA-induced seizures, transgenic mice) is “few apoptotic hippocampal neurons”. For the same substance, the “argyrophyllic labelling of neuronal soma (silver staining)” value in data set [1] (hippocampal sections after KA-induced seizures, transgenic vs wild-type mice) is “dramatically reduced”. In addition, the “average number of degenerating hippocampal neurons per animal (Fluoro-Jade)” value in data set [1] (total hippocampus, mice expressing 2-3 times endogenous htt levels, 25 mg/kg KA i.p., one week, control 4362) is reported as 81. Further, in data set [2] (cerebellum, wild-type mice 8.68 +/−1.67, no significant difference), the “cerebellar caspase activation (DEVD-ase activity)” value is reported as 13.66 +/−2.32. Besides, in data set [2] (hippocampus, wild-type mice 20.8 +/−1.77, P=0.02), the “hippocampal caspase activation (DEVD-ase activity)” value was 14.5 +/−1.49. Further, in data set [3], the “average body weight greater than wild-type mice” value is given as “approximately 25%”. The “mice identified with tumors that were transgenic” value in data set [4] (6 month period, 38/45) is given as 84.5%. Further, the “average age of tumor development” value in data set [4] (transgenic group, wild-type littermates 17.1 months) is reported as 13.8 months. Moreover, the “increase in proliferation compared to control vector” value in data set [5] is 5-6 fold. Moreover, the soft agar colonies result in data set [6] (retrovirally transfected NIH3T3 cells, control cells about 5%) is recorded as “about 15%”. For the same substance, in data set [6] (soft agar, NIH3T3 cells), the “increase in number of colonies over control cells” value is on record as 3 fold. In data set [6] (stable retroviral transfection of NIH3T3 cells), the morphologic transformation entry is “malignant, morphologic transformation”. The “protection from cell death induced by anoikis” value in data set [7] is “Protection from cell death induced by anoikis”.
